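The compound was tested at five concentrations on cells cultured in 96-well plates, with a 48-hour exposure period. GI50 is the concentration that inhibits growth by half. TGI: concentration producing complete growth inhibition.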
What was measured:
Assay in all cases: NCI tumour cell line growth inhibition, 48 h
HCC-2998 colon = system: HCC-2998 colon
T-47D breast = system: T-47D breast
EKVX NSCLC = system: EKVX NSCLC
DU-145 prostate = system: DU-145 prostate
CCRF-CEM leukemia = system: CCRF-CEM leukemia
A498 renal = system: A498 renal
UACC-62 melanoma = system: UACC-62 melanoma
OVCAR-3 ovarian = system: OVCAR-3 ovarian
NCI-H226 lung = system: NCI-H226 lung
SK-MEL-5 melanoma = system: SK-MEL-5 melanoma
HT29 colon = system: HT29 colon
HCT-116 colon = system: HCT-116 colon
SN12C renal = system: SN12C renal
SK-MEL-28 melanoma = system: SK-MEL-28 melanoma
SNB-19 CNS = system: SNB-19 CNS
BT-549 breast = system: BT-549 breast
SNB-75 CNS = system: SNB-75 CNS
OVCAR-8 ovarian = system: OVCAR-8 ovarian
HL-60(TB) leukemia = system: HL-60(TB) leukemia
NCI-H460 lung = system: NCI-H460 lung
KM12 colon = system: KM12 colon
MDA-MB-435 = system: MDA-MB-435
HS 578T breast = system: HS 578T breast
HOP-92 NSCLC = system: HOP-92 NSCLC
MCF7 breast = system: MCF7 breast
LOX IMVI melanoma = system: LOX IMVI melanoma
M14 melanoma = system: M14 melanoma
SK-OV-3 ovarian = system: SK-OV-3 ovarian
SK-MEL-2 melanoma = system: SK-MEL-2 melanoma

## CCN(CC)CCCC(C)Nc1c2ccc(Cl)cc2nc2ccc(O)cc12 (configuration not stated)
HCC-2998 colon
  GI50: 2.44 µM
  TGI: 6.97 µM
T-47D breast
  GI50: 3 µM
  TGI: 11.6 µM
EKVX NSCLC
  GI50: 2.94 µM
  TGI: 11.6 µM
DU-145 prostate
  GI50: 2.26 µM
  TGI: 8.39 µM
CCRF-CEM leukemia
  GI50: 3.48 µM
  TGI: 28.9 µM
A498 renal
  GI50: 0.457 µM
  TGI: 18.2 µM
UACC-62 melanoma
  GI50: 1.89 µM
  TGI: 4.02 µM
OVCAR-3 ovarian
  GI50: 2.05 µM
  TGI: 5.93 µM
NCI-H226 lung
  GI50: 2.53 µM
  TGI: 8.99 µM
SK-MEL-5 melanoma
  GI50: 1.73 µM
  TGI: 3.12 µM
HT29 colon
  GI50: 1.22 µM
  TGI: 5.39 µM
HCT-116 colon
  GI50: 1.13 µM
  TGI: 3.08 µM
SN12C renal
  GI50: 2.59 µM
  TGI: 16.6 µM
SK-MEL-28 melanoma
  GI50: 1.6 µM
  TGI: 2.98 µM
SNB-19 CNS
  GI50: 3.37 µM
  TGI: 16.3 µM
BT-549 breast
  GI50: 5.38 µM
  TGI: 18.3 µM
SNB-75 CNS
  GI50: 1.62 µM
  TGI: 3.86 µM
OVCAR-8 ovarian
  GI50: 1.73 µM
  TGI: 11.7 µM
HL-60(TB) leukemia
  GI50: 2.06 µM
  TGI: 6.25 µM
NCI-H460 lung
  GI50: 1.38 µM
  TGI: 3.84 µM
KM12 colon
  GI50: 2.39 µM
  TGI: 10.5 µM
MDA-MB-435
  GI50: 1.77 µM
  TGI: 3.32 µM
HS 578T breast
  GI50: 1.68 µM
  TGI: 5.55 µM
HOP-92 NSCLC
  GI50: 2.05 µM
  TGI: 12 µM
MCF7 breast
  GI50: 1.4 µM
  TGI: 5.48 µM
LOX IMVI melanoma
  GI50: 1.6 µM
  TGI: 3.22 µM
M14 melanoma
  GI50: 1.56 µM
  TGI: 2.99 µM
SK-OV-3 ovarian
  GI50: 3.12 µM
  TGI: 16 µM
SK-MEL-2 melanoma
  GI50: 4.78 µM
